Legend:
[1] = system: BACE1 cleavage of rat APP; assay: Pilot PD of FAH65 vs. verubecestat in rats (CSF and medial cortex biomarkers); format: in vivo; conditions: oral, 30 mg/kg
Description: The hERG study was conducted at Eurofins (CEREP PanLabs).
Compound binding was calculated as a % inhibition of the binding of a radioactively labeled ligand specific for each target. While results showing an inhibition or stimulation higher than 50% are considered to
For these pilot experiments eAPP as described in Descamps et al (26) is crosslinked to a the CM5 Biacore chip. […] The raw data uncorrected for contribution of running buffer is fit to equilibrium binding data and corrected for the contribution of the running buffer to
pharmacokinetic (PK)/pharmacodynamic (PD) study to assess relative brain permeability and target engagement. Adult male and female Sprague-Dawley rats (≥ 200 g) were dosed at 30 mg/kg/day with
Animals were euthanized at 1, 2, 3, 6, 12 and 24 hours (n = 1/time point; 2 untreated controls) post-dose by pentobarbital over-anesthesia followed by collection of cerebrospinal fluid (CSF), trans-cardial blood collection for the isolation of plasma, perfusion with cold saline, and collection of brain tissue (medial cortex) for biochemical analyses (Fig. S3).

Plasma stability assay = format: in vitro ADME; conditions: human plasma diluted 2-fold in PBS, pH 7.4, 37 °C, 180 min, read-out: Plasma stability t1/2
Description: The effects of candidate ASBIs on BACE2 activity was assessed using the R&D Systems BACE2 activity assay kit (Catalog #: 4097-AS and ES010) formatted from to the manufacturers. For the assay, 4 μL of assay buffer was added to each well, followed by 2 μL of BACE2 diluted in assay buffer to 10 ng/µL.
Then, 2 μL of inhibitor, at the appropriate concentrations were added to the wells and incubated for 30 minutes at room temperature. For all dilutions of inhibitor, drug stock solutions of 10 mM in DMSO were diluted to 50 μM in water; subsequent dilutions were in 0.5% DMSO. Afterwards, 2 μL of fluorogenic BACE2 substrate, diluted to 50 μM in assay buffer, were added to each well, after which the signal generated was read every 30 minutes at 25 °C for 2 hr (Fig S2).
FAH65 and its enantiomers at 10 mM in 100% DMSO was diluted in PBS pH 7.4 to 100, 10, 1, and 0.1 µM; plus, a vehicle-only control. The solutions were incubated at 37 °C for 90 min and centrifuged at 16K x g for 5 min. An aliquot of each supernatant was analyzed by LC-MS/MS. […]
Kinetic solubility (µM) was calculated using the trendline equation with maximum chromatographic peak area observed in the aqueous sample. […]
([…]® CAN, Chiral Technologies, Cat#H15L-109, 5 µm 50 x 4 mm). […] The retention time of the compound (tr) and injection peak were recorded.
The percent protein binding (P) was calculated using the following equations: […]

Question: What does the source list for `Cc1cc(C2(c3cccc(-c4cncnc4)c3)N=C(N)N(C)C2=O)ccc1OC(F)F` (stereo not drawn) [FAH65]?
Answer: time post-delivery of lowest sAPPβ in brain (medial cortex) [1]: 6 h; time post-delivery of lowest sAPPβ in CSF ([1]; 1- and 2-h FAH65 samples not available): 3 h; Aβ1-40 in CSF compared with Veru-treated rats ([1]; in words): lower; sAPPα levels in brain medial cortex ([1]; in words): higher; sAPPβ in CSF compared with Veru ([1]; in words): lower; half-life at 1 µM (Plasma stability assay): > 3 h

Reference: paper PMC12491701, “Discovery of an APP-selective BACE1 inhibitor for Alzheimer's disease” (Neurotherapeutics, 2025)
